Assay results reported in patent US12215067B2, “Chemical compounds targeting the eye and use thereof in the treatment of eye diseases” (BIOPHYTIS, priority 2019, dated 2025).
Like-named read-outs stand apart in the source and are kept apart here.

Assays:
[1] = Pharmacokinetic study via oral administration in mice, plasma concentrations; assay type: in vivo, mice C57BL/6
Experimental: (§1) The pharmacokinetic study of the chemical compounds (C) following the oral administration thereof was conducted using mice C57BL/6 (January, 53940 The Genest Saint Isle, France). The chemical compounds derived from norbixin (C) were administered at a dose of 50 mg/kg of body weight. After administration, the blood was sampled at the tail at t=0.25 h; 0.5 h; 1 h; 3 h; 6 h and 8 h. The blood samples were centrifuged and the plasmas taken. The dosage of the plasma samples made it possible to determine pharmacokinetic parameters, namely Cmax, which corresponds to the maximum concentration observed after the administration of the molecule, Tmax which is the time required to reach maximum concentration after administration of the molecule and the AUC: the area under the curve which corresponds to the plasma exposure (FIG. 2).
(§2) The LC-MSMS analysis is carried out with a HPLC 1200 Infinity chain (Agilent Technologies, Santa-Clara, United States), a UV detector and a mass spectrometer QQQ6420 (Agilent Technologies Santa-Clara, United States). The injection volume is 5 μL. The chemical compounds C are eluted on an inverse phase column C18 (2.1*50 mm, particles 3 μm; Ace-C18-Excel, AIT) with a gradient of acetonitrile and water (containing 0.1% formic acid) and a flow rate of 0.3 mL/min. The conditions of the gradient can change according to the chemical compound C analyzed. The UV detector analyzes at 460 nm and the mass spectrometer analyzed in Mode MRM—Positive.
(§3) Table 2 discloses the pharmacokinetic results of the chemical compounds C following the administration p.o. 50 mg/kg in D-α-Tocopheryl polyethylene glycol 1000 succinate (VitE-TPGS) 20% in a sodium bicarbonate buffer (0.1M).

[2] = system: primary cultures of RPE of adult pigs; experiment: In vitro photoprotection of RPE cells illuminated with blue light in the presence of A2E; assay type: cell-based, pig; conditions: Sus scrofa, RPE, A2E 30 μM, survival 24 h after illumination; for viability at 5 µM: 5 μM compound; for viability at 10 µM: 10 μM compound; for viability at 20 µM: 20 μM compound
Description: In addition to better distribution in the target-tissue, selecting new compounds must also be based on good photo-protective activity that limits the loss of the cells of the RPE and thus reducing the retinal degeneration observed during the AMD and other degenerative diseases such as Retinitis pigmentosa and Stargardt's disease. At the cellular level, on cultures of cells the RPE coming from pig retina, Fontaine et al. (2016) have shown that a treatment with norbixin (BIO201) protects the cells of the RPE against apoptosis following an illumination in the presence of A2E (80% survival 24 h after exposure). This same screening test according to the percentage of photoprotection was used so as to determine its modulation by and the chemical compounds derived from norbixin (C) object of the present invention in comparison with the photo-protective effect of norbixin and characterize these modulations from a statical standpoint.
The test in vitro described hereinabove and intended to study the photo-protective effect of norbixin was used so as to quantify the photo-protective effects of the various chemical compounds derived from norbixin (C) on the cells of the RPE illuminated with blue light in the presence of A2E (FIG. 3). The photo-protective effect of the molecules was evaluated in a phototoxicity cellular model induced by treatment by A2E followed by an illumination with blue light. The term “blue radiation” means the radiation corresponding to the blue band of the visible light spectrum, i.e. of a wavelength comprised between 435 and 490 nm. This model uses primary cultures of RPE of adult pigs. The cell survival is quantified thanks to a test of cellular viability. At −48 h the compounds to be tested (in solution at 5 mM in the DMSO) are added to obtain the final concentrations of 1 to 20 μM) then at −19 h of the A2E (final concentration 30 μM) and the cells (time 0 h) are illuminated. 24 h after the survival of the cells is measured. The acquisition of images, as well as the processing thereof, are carried out using a fluorescence microscope controlled by the Metamorph software and a dedicated quantification program. The experiments are conducted on a 96-well microplate in quadruplicate and the experiment is reproduced at least four times. The results are expressed in the form of a ratio representing the number of living cells in the wells treated by the molecules to be tested, divided by the number of living cells in the controlled wells (treated by the dilution medium without A2E). This test made it possible hereinabove to reveal the photo-protective activity of norbixin (Fontaine et al. 2016).

[3] = Pharmacokinetic study via oral administration in mice, ocular concentrations; assay type: in vivo, mice C57BL/6; conditions: for Tmax: C57BL/6, mouse, eye, po; for Tmax / Eye CMax: mice, p.o. 50 mg/kg in VitE-TPGS 20% in sodium bicarbonate buffer (0.1M); for Eye Exposure 50 mg/kg p.o. AUC: Table 3, repeats the eye exposure of Table 2
Experimental: as §1
In parallel, the ocular concentrations of the chemical compounds derived from norbixin (C) were dosed in the following way (FIG. 1): both eyes of each mouse were taken in Precellys tubes and stored at −80° C. until the time of dosing. The eyes are then ground in the Precellys tubes with a bench homogenizer, Fast-prep (Fischer Scientific, Hampton, United States) in a mixture of organic solvents, in a first step with 500 μL of chloroform/methanol (1/1, v/v) then 500 μL of chloroform/dichloromethane (1/1, v/v). The supernatants are recovered at each step and transferred to a 96-well plate of 2 mL.
For the quantification of the chemical compounds C, a calibration curve is carried out with 8 standards (5 to 5,000 ng/mL) in the same organic solvent mixtures and transferred (100 μL) to the 96-well plate of 2 mL.
The supernatants and standards are evaporated in a EZ2 (Genevac, Ipswich, United Kingdom), without heating, then taken with 100 μL of DMSO/methanol (20:80, v/v) before being transferred to a 96-well plate of 200 μL.
as §2, §3

[4] = C57BL/6, mouse, in vivo, po, 50 mg/kg

| SMILES | Cmax [1, 4] [ng/mL] | Plasma Exposure [1, 4] [µg·h/mL] | Tmax [1, 4] [min] | viability at 5 µM [2] [%] | viability at 10 µM [2] [%] | viability at 20 µM [2] [%] | Tmax [3] [min] | Eye Exposure 50 mg/kg p.o. AUC [3] [ng · h/eye] | Eye CMax [3] [ng/eye] | Cmax ([1]; C57BL/6, mouse, in vivo, po, mice, p.o. 50 mg/kg in VitE-TPGS 20% in sodium bicarbonate buffer (0.1M), read-out: Plasma CMax) [ng/mL] | Tmax ([1]; C57BL/6, mouse, in vivo, po, mice, p.o. 50 mg/kg in VitE-TPGS 20% in sodium bicarbonate buffer (0.1M), read-out: Plasma TMax) [min] | Plasma Exposure ([1]; mice, p.o. 50 mg/kg in VitE-TPGS 20% in sodium bicarbonate buffer (0.1M), area under the curve) [µg·h/mL] |
| --- | --- | --- | --- | --- | --- | --- | --- | --- | --- | --- | --- | --- |
| CC(=C/C=C/C(C)=C/C=C/C=C(C)/C=C/C=C(C)/C=C/C(=O)N1CCC(O)C1)/C=C/C(=O)O (stereo in doubt) [C9, 1-[(S)-3-hydroxypyrrolidinamido](2E,4E,6E,8E,10E,12E,14E,16Z,18E)-4,8,13,17-tetramethylicosa-2,4,6,8,10,12,14,16,18-nonaenedioate] | 37900 | 342.68 | 60 | 22.1 | 32 | 63.7 | 60 | 452.0 | 53.1 |  |  |  |
| CC(=C/C=C/C(C)=C/C=C/C=C(C)/C=C/C=C(C)/C=C/C(=O)N1CCC(O)C1)/C=C/C(=O)O (stereo in doubt) [C11, 1-[(R)-3-hydroxypyrrolidinamido](2E,4E,6E,8E,10E,12E,14E,16Z,18E)-4,8,13,17-tetramethylicosa-2,4,6,8,10,12,14,16,18-nonaenedioate] | 35900 | 190 | 60 | 21.1 | 39.3 | 63.4 | 60 | 238.4 | 47.7 |  |  |  |
| COCCNC(=O)/C=C/C(C)=C/C=C/C(C)=C/C=C/C=C(C)/C=C/C=C(C)\C=C\C(=O)O [C1, 1-[2-methoxyethanamido](2E,4E,6E,8E,10E,12E,14E,16Z,18E)-4,8,13,17-tetramethylicosa-2,4,6,8,10,12,14,16,18-nonaenedioate] | 18700 | 52.66 | 30 | 55 | 67.7 | 77.8 | 30 | 26.6 | 10.7 |  |  |  |
| CC(=C/C=C/C(C)=C/C=C/C=C(C)/C=C/C=C(C)/C=C/C(=O)N1CCOCC1)/C=C/C(=O)O [C2, 1-[1,4-oxazinamido](2E,4E,6E,8E,10E,12E,14E,16Z,18E)-4,8,13,17-tetramethylicosa-2,4,6,8,10,12,14,16,18-nonaenedioate] |  |  |  | 33.9 | 22.3 | 49.1 | 30 | 186.5 | 41 | 34000 | 30 | 176.2 |
| CC(=C/C=C/C(C)=C/C=C/C=C(C)/C=C/C=C(C)/C=C/C(=O)N1CCCCC1)/C=C/C(=O)O [C3, 1-[piperidinamido](2E,4E,6E,8E,10E,12E,14E,16Z,18E)-4,8,13,17-tetramethylicosa-2,4,6,8,10,12,14,16,18-nonaenedioate] | 4050 | 10.37 | 30 | 11.3 | 68.1 | 45.1 | 30 | 19.1 | 5.1 |  |  |  |
| CC(=C/C=C/C(C)=C/C=C/C=C(C)/C=C/C=C(C)/C=C/C(=O)NCCO)/C=C/C(=O)O [C4, 1-[2-hydroxyethanamido](2E,4E,6E,8E,10E,12E,14E,16Z,18E)-4,8,13,17-tetramethylicosa-2,4,6,8,10,12,14,16,18-nonaenedioate] | 57100 | 208.6 | 60 | 16.4 | 36 | 67.2 | 30 | 30.0 | 10.2 |  |  |  |
| CC(=C/C=C/C(C)=C/C=C/C=C(C)/C=C/C=C(C)/C=C/C(=O)N1CCCOCC1)/C=C/C(=O)O [C5, 1[1,4-oxazepanamido](2E,4E,6E,8E,10E,12E,14E,16Z,18E)-4,8,13,17-tetramethylicosa-2,4,6,8,10,12,14,16,18-nonaenedioate] | 37700 | 299.9 | 60 | 11.3 | 25.6 | 36 | 30 | 188.7 | 31.4 |  |  |  |
| CC(=C/C=C/C(C)=C/C=C/C=C(C)/C=C/C=C(C)/C=C/C(=O)N1CCSCC1)/C=C/C(=O)O [C6] | 3950 | 10.81 | 30 |  | 60.6 | 19.1 | 30 | 23.1 | 3.9 |  |  |  |
| CC(=C/C=C/C(C)=C/C=C/C=C(C)/C=C/C=C(C)/C=C/C(=O)N1CCCC1)/C=C/C(=O)O [C7, 1-pyrrolidinamido-(2E,4E,6E,8E,10E,12E,14E,16Z,18E)-4,8,13,17-tetramethylicosa-2,4,6,8,10,12,14,16,18-nonaenedioate] | 6890 | 17.29 | 30 | 5.2 | 52.8 |  | 30 | 18.5 | 7 |  |  |  |
| CC(=C/C=C/C(C)=C/C=C/C=C(C)/C=C/C=C(C)/C=C/C(=O)NCCCN1CCOCC1)/C=C/C(=O)O [C8] | 59800 | 173.74 | 30 | 28.6 | 33.4 | 75.2 | 60 | 472.4 | 56.8 |  |  |  |
